Results published in US20250213556A1, “COMBINATION THERAPY FOR TREATING CANCER” (AstraZeneca AB, priority 2022, published 2025).

How the values were obtained:
[1] = tested on: LNCaP tumours; experiment: In vivo pre-clinical model LNCaP (subcutaneous xenograft); details: 42 days, NOD SCID mice, vs vehicle
Protocol: LNCaP cells (1×10^7 cells 1:1 in Matrigel) were implanted subcutaneously onto the flank of male NOD SCID mice (aged 5-8 weeks weighing approximately 25-30 g, supplied by Charles River) using a 23-gauge needle.
The mice were dosed for 42 days, with the dose calculated for individual animals on day of dosing, and with a […] dosing volume.
Tumours were measured ×3 per week using digital calipers. The length and width of the tumour will be measured and volume calculated using the following formula: […]
The bodyweight of all mice in the study was measured and recorded 3 times per week; this information was used to calculate precise dosing for each animal.

[2] = tested on: ATM-KO LNCAP cells; experiment: Cell proliferation assay and synergy in isogenic ATM-KO LNCAP cells; assay type: cell-based; details: monotherapy; for AC50: Homo sapiens, LNCaP
Protocol: (§1) Cells in 384-well or 96-well plates were dosed using an Echo 555 (LabCyte, San Jose, CA, USA) or using the HP D300e Digital Dispenser (HP Life Science Dispensing), respectively.
(§2) Live cell count pre- and post-treatment (7 days after treatment) was determined using CellTiter-Glo as per manufacturer's instructions (Promega, Madison, WI, USA; G7570).
(§3) Cell viability was determined with the Sytox Green assay as described in Davies 2012 and the AC50 calculated. The HSA (Highest Single Agent) Synergy Score was calculated according to Bernenbaum 1989.
An isogenic ATM-KO model in LNCAP cells was generated with CRISPR-Cas9 technology.
(§4) Using the method of example 1, these ATM-KO cell lines were determined to be sensitive to AZD5305, with an AC50 of 3 nM, in contrast to the parental (or control) LNCAP cell line which is not sensitive to AZD5305 monotherapy, with an AC50 greater than 10 μM.
(§5) The HSA (Highest Single Agent) Synergy Score was calculated according to Bernenbaum 1989 when the AZD5305 and enzalutamide were used in combination.

[3] = tested on: LnCAP cells; experiment: Cell proliferation assay and combination benefit calculation, LnCAP; assay type: cell-based; details: Homo sapiens, monotherapy
Protocol: (§6) Cell line identification was validated using the CellCheck assay (IDEXX Bioanalytics, Westbrook, ME, USA). All cell lines were validated free of virus Mycoplasma contamination using the MycoSEQ assay (Thermo Fisher Scientific, Waltham, MA, USA) or STAT-Myco assay (IDEXX Bioanalytics). All cell lines were grown RPMI-1640 growth media (Corning 17-105-CV) supplemented with 10% fetal bovine serum (FBS) or, when indicated, 10% charcoal stripped FBS (ThermoFisher Scientific, 12676029) and 2 mM glutamine.
as §1, §2, §3, §4, §5

[4] = tested on: C901 tumours; experiment: In vivo pre-clinical model C901 patient derived xenograft (PDX); details: 21 days, NMRI Nude mice, vs vehicle
Protocol: C901 patient derived xenograft (PDX) model was engrafted subcutaneously onto the flank of donor mice and monitored once a week until ethical size (1000-2000 mm^3). When donor tumours reached ethical size, PDX fragments measuring approximately 20 mm^3 were engrafted in the study mice (male NMRI Nude mice, aged 6-9 weeks, supplied by Janvier labs).
The mice were dosed for 21 days, with the dose calculated for individual animals on day of dosing, and with a […] dosing volume.
Tumours were measured ×2 per week using digital calipers. The length and width of the tumour will be measured and volume calculated using the following formula: […]
The bodyweight of all mice in the study was measured and recorded 2 times per week; this information was used to calculate precise dosing for each animal.

[5] = tested on: CWR22Pc-R1-AD1 cells; experiment: Cell proliferation assay and combination benefit calculation, CWR22Pc-R1-AD1; assay type: cell-based; details: 168 h, monotherapy, 7 days after treatment
Protocol: as §6, §1, §2, §3

[6] = tested on: VCAP cells; experiment: Cell proliferation assay and combination benefit calculation, VCAP; assay type: cell-based; details: Homo sapiens, 168 h, monotherapy, 7 days after treatment
Protocol: as §6, §1, §2, §3

[7] = tested on: C4-2 cells; experiment: Cell proliferation assay and combination benefit calculation, C4-2; assay type: cell-based; details: 168 h, monotherapy, 7 days after treatment
Protocol: as §6, §1, §2, §3

[8] = 168 h, LnCAP, 7 days after treatment
[9] = LnCAP parental (control), Example 2

| SMILES | tumour growth inhibition (TGI) ([1]; AZD5305 1 mg/kg QD) | AC50 ([2]; ATM-KO cell lines (clone.1 and clone.2)) [µM] | AC50 [3, 8] [µM] | AC50 [3, 9] [µM] | TGI ([4]; AZD5305 1 mg/kg QD) [%] | AC50 [5] [µM] | AC50 [6] [µM] | AC50 [7] [µM] | tumour growth inhibition (TGI) ([1]; enzalutamide 4 mg/kg QD) | AC50 ([2]; LnAP-ATM-KO-CL.1) [µM] | Sensitivity of the cell lines ([2]; the cell lines of Example 2 (LNCAP parental and ATM-KO)) | TGI ([4]; enzalutamide 60 mg/kg QD) [%] |
| --- | --- | --- | --- | --- | --- | --- | --- | --- | --- | --- | --- | --- |
| CCc1cc2ncc(CN3CCN(c4ccc(C(=O)NC)nc4)CC3)cc2[nH]c1=O [AZD5305, 5-{4-[(7-ethyl-6-oxo-5,6-dihydro-1,5-naphthyridin-3-yl)methyl]piperazin-1-yl}-N-methylpyridine-2-carboxamide] | no or minimal (4%) | 0.003 | 12 | > 10 | 90 | 0.0316 | 1.6 | 20 | – | – | – | – |
| CNC(=O)c1ccc(N2C(=S)N(c3ccc(C#N)c(C(F)(F)F)c3)C(=O)C2(C)C)cc1F [Enzalutamide, 4-(3-(4-cyano-3-(trifluoromethyl)phenyl)-5,5-dimethyl-4-oxo-2-thioxoimidazolidin-1-yl)-2-fluoro-N-methylbenzamide] | – | – | 1.41 | > 10 | – | 9.59 | 2.94 | 8.33 | no or minimal (4%) | > 10 | No sensitivity could be measured | 92 |
